Measurements from ChEMBL document CHEMBL1123380, “Spin trapping of superoxide and hydroxyl radicals with substituted pyrroline 1-oxides” (J Med Chem, 1986).

Columns and labels:
[1] = Compound was evaluated for the partition coefficient in octanol/water; format: physicochemical
[2] = Compound was evaluated for the partition coefficient in octanol/water (1-octanol / 10 mM phosphate buffer at pH 7.4); format: physicochemical

Compound	K [1]	K [2]
CCCCC(C)(CCC=O)[N+](=O)[O-] (centres undefined)	1.1	
CC1(C)CCC=[N+]1[O-]		0.02
O=CCCC1([N+](=O)[O-])CCCC1	0.8	
CCCC(CCC)(CCC=O)[N+](=O)[O-]	4.9	
